The source of these data is paper PMC6164518 (Marine Drugs, 2018).

In one data set the target is T1, Electric eel AChE (Electrophorus electricus, UniProt O42275).
T1 construct: purchased Sigma-Aldrich (Steinheim, Germany)
The data set is described as follows: biochemical. The conditions noted are these: AChE from electric eel; mean ± SD from three separate experiments; read-out: IC50 EeAChE. On the procedure:
(§1) The AChE and BChE inhibitory activities of compounds were determined by using a slightly modified Ellman’s method. Electric eel AChE, equine serum BChE, 5,5′-dithiobis(2-nitrobenzoic acid) (DTNB), phosphate buffer solution (PBS, pH 8.0), acetylthiocholine (ATC) iodide, and butyrylthiocholine (BUC) iodide were purchased from Sigma-Aldrich (Steinheim, Germany). […] Enzyme solutions were prepared at 2.0 U/mL in 2-mL aliquots. The assay medium consisted of 10 μL of enzyme, 40 μL of PBS, 20 μL of 0.01 M DTNB, and 10 μL of tested compound. Assayed solutions of tested compounds were pre-incubated with corresponding ChE for 5 min. The reaction was initiated by the addition of 20 μL of 0.01 M substrate (ATC or BUC). The activity was determined by measuring the increase in absorbance at 410 nm at 37 °C in 2-min intervals using Tecan Spark multimode microplate reader (Mannedorf, Switzerland). The percentage of inhibition (I) was calculated from the measured data as follows: I = (Ac − Ai)/Ac × 100%, where Ai and Ac represent the change in the absorbance in the presence of an inhibitor and without an inhibitor, respectively.

A further data set addresses T2, equine serum BChE (Equus caballus, UniProt P81908).
T2 construct: purchased Sigma-Aldrich (Steinheim, Germany); host or cells: equine serum
The data set is described as follows: biochemical. The conditions noted are these: BChE from equine serum; mean ± SD from three separate experiments; read-out: IC50 eqBChE. Here is the method: as §1

The target in data set [1] is T3, AChE (Electrophorus electricus, UniProt O42275).
T3 construct: purchased Sigma-Aldrich (Steinheim, Germany)
T3 sequence (O42275 24-633): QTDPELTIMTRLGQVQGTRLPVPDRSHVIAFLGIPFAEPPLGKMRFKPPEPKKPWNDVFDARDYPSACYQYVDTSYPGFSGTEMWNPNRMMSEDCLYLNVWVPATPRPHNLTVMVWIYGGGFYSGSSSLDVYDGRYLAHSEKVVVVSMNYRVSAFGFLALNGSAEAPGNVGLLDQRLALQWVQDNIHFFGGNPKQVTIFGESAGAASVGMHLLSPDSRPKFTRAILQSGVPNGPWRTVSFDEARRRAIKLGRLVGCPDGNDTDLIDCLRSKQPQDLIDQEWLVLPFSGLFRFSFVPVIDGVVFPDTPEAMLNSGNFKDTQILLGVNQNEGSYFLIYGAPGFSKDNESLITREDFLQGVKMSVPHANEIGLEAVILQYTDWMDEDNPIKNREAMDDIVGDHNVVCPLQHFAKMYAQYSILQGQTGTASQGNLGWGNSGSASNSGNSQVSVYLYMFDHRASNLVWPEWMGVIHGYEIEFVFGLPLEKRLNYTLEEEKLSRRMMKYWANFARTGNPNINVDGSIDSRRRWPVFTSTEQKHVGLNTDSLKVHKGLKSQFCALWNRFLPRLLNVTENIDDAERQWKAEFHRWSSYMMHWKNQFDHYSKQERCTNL
Put plainly: Kinetic study of AChE inhibition (Lineweaver-Burk, Ellman's method). Format: biochemical. Here is the method: (§2) Herein, compound 12j was selected as a representative prototype for kinetic assay to obtain information on the mode of action and binding site of this series of analogues. […].
(§3) The equilibrium constant for binding with the free enzyme (Ki) was obtained from the slope against inhibitor concentration. […].
(§4) Kinetic studies of inhibition on AChE and BChE were performed by using Ellman’s method as described above. […]
(§5) (B) Secondary plot of slopes versus 12j concentrations.
For orientation: In Ellman's method for cholinesterases, released thiocholine reacts with DTNB.

The next data set addresses T4, BChE (Equus caballus, UniProt P81908).
T4 construct: purchased Sigma-Aldrich (Steinheim, Germany); host or cells: equine serum
The data set is described as follows: Kinetic study of BChE inhibition (Lineweaver-Burk, Ellman's method). Format: biochemical. On the procedure:
as §2, §3, §4, §5

The target of the next data set is T5, Aβ1–42 (Homo sapiens, UniProt P05067).
T5 construct: pre-treated Aβ1–42 (GL Biochem Ltd., Shanghai, China) was dissolved in DMSO; purchased GL Biochem Ltd., Shanghai, China
T5 sequence (P05067 672-713 limits assumed): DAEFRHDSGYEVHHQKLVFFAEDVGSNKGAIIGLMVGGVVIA
Put plainly: Inhibition of self-induced Aβ1–42 aggregation (ThT fluorescence). Format: biochemical. The following applies: Aβ1–42 2.5 µM, compound 10 µM; mean ± SD of three experiments. On the procedure:
In order to investigate the inhibition of compounds on Aβ1–42 self-aggregation, a ThT-based fluorometric assay was performed. 1,1,1,3,3,3-hexafluoro-2-propanol (HFIP) pre-treated Aβ1–42 (GL Biochem Ltd., Shanghai, China) was dissolved in DMSO to make a 200 µM stock solution. The stock solution was centrifuged at the speed of 13,500 rpm for 10 min. The above supernatant was used for experiments. The tested compounds were dissolved in DMSO at concentrations of 0.8 mM. A screening assay for the tested compounds to inhibit A aggregation was performed by measuring ThT fluorescence emission. Compounds (2 µL) and 2 µL of 200 µM Aβ1–42 were added into 76 µL of phosphate-buffered saline (PBS at pH 7.4) in a 96-well plate. After incubation for 24 h at room temperature, 80 µL of 5 µM of ThT solution (in 50 mM of glycine-NaOH at pH 8.5) was added to the reaction solution. Fluorescence emission was measured at 490 nm with an excitation wavelength of 450 nm on a Tecan Spark multimode microplate reader. […] The fluorescence intensities were compared, and the % inhibition was calculated by the following equation: 100 − [(Fi − Fb)/(Fo − Fb) × 100], where Fi, Fo and Fb are the fluorescence intensities obtained for Aβ aggregation in the presence of inhibitors Aβ1–42 and ThT; in the presence of Aβ1–42 and THT but no inhibitors; and the blanks containing ThT only.

A further data set has as its target T6, Aβ1–42 and AChE (Electrophorus electricus, UniProt O42275).
T6 construct: HFIP pre-treated Aβ1–42 (GL Biochem Ltd., shanghai, China) was dissolved in DMSO; purchased GL Biochem Ltd. (Aβ1–42)
Put plainly: Inhibition of AChE-induced Aβ1–42 aggregation (ThT fluorescence). The data set is classed as biochemical. The conditions noted are these: Aβ1–42 2.5 µM, AChE 0.2 U/mL, compound 8 µM; mean ± SD of three experiments. Here is the method: The stock solution was centrifuged at the speed of 13,500 rpm for 10 min. The above supernatant was used for experiments. […] Fluorescence emission was measured at 490 nm with an excitation wavelength of 450 nm on a Tecan Spark multimode microplate reader.

The next data set is described as follows: in vitro. The conditions noted are these: human. On the procedure: Thus, to verify the hepatotoxicity of 1 and 12j, a 3-(4,5-dimethylthiazol-2-yl)-2,5-diphenyltetrazolium bromide (MTT) assay on the human hepatoma cell line (HepG2) was carried out.
The cytotoxicity of selected compounds was evaluated on HepG2 cells. Cells were inoculated into 96-well plates. After incubation for 24 h, the cells were treated with different concentrations of tested compounds for 24 h, and then were incubated with 10 μL of 3-(4,5-dimethylthiazol-2-yl)-2,5-diphenyltetrazolium bromide (MTT) at 37 °C for 2 h. The formazan dye product was measured by the absorbance at 490 nm on a Tecan Spark multimode microplate reader.

Data set [2] relates to AChE. Further details: method as in PMID 24547899. The conditions noted are these: read-out: AChE IC50 (reported value); cited from earlier work.
Where [3] appears, read: estimated from secondary plot of slopes versus inhibitor concentration.

Bounds are passed on as bounds.

T1 sequence (O42275 24-633): as the sequence (O42275 24-633) above
T6 sequence (O42275 24-633): as above
T4 sequence (P81908 whole entry): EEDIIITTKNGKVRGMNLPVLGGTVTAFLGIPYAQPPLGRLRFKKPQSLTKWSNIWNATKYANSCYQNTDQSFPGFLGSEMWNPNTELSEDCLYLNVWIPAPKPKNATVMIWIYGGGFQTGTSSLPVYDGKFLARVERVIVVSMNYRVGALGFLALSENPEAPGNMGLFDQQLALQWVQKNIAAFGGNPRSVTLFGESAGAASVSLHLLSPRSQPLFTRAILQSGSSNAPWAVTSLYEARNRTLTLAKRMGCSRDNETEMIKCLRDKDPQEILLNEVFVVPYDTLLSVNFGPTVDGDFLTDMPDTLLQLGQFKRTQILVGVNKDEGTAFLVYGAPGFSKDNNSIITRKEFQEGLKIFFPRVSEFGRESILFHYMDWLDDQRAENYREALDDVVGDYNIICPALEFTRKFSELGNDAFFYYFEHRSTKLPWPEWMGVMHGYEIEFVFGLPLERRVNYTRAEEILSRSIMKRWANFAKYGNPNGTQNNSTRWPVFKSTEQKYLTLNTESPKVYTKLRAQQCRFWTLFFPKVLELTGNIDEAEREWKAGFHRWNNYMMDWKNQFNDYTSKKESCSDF
T2 sequence (P81908 whole entry): as above

Consider `O=C(Cc1cc(Br)ccc1F)NCCCCCCCNc1c2c(nc3ccccc13)CCCC2` [Compound 12j, 2-(5-Bromo-2-fluorophenyl)-N-(7-((1,2,3,4-tetrahydroacridin-9-yl)amino)heptyl)acetamide], for which the half-inhibitory concentration (IC50) was 0.182 ± 0.006 µM at Electric eel AChE and 0.064 ± 0.006 µM at equine serum BChE. The “Type of AChE inhibition” value on AChE [1] (Lineweaver-Burk plots) is listed as “linear mixed-type”. The Ki on AChE [1] (setting [3]) was 0.0975 µM; on BChE (setting [3]), 0.00991 µM. The “Type of BChE inhibition” value at BChE (Lineweaver-Burk plots) is recorded as “linear mixed-type”. Besides, the “Inhibition of Aβ Aggregation (%) Self-Induced” value at Aβ1–42 is 32.37 ± 0.62%. The “Inhibition of Aβ Aggregation (%) AChE-Induced” value on Aβ1–42 and AChE came to 47.73 ± 4.35%. The IC50 at 24 h in the data set “in vitro” is > 80 µM.

Regarding `COc1c(Br)cc(CC(=O)NCCCCC[N+](C)(C)C)cc1Br` [Compound 1, Pulmonarin B], the IC50 on Electric eel AChE was 37 ± 2.11 µM; on equine serum BChE it was 30.7 ± 1.44 µM; in the data set with AChE [2], 36 µM. Besides, the “Inhibition of Aβ Aggregation (%) Self-Induced” value on Aβ1–42 worked out at 29.78 ± 1.45%. Also, the “Inhibition of Aβ Aggregation (%) AChE-Induced” value on Aβ1–42 and AChE came to 27.60 ± 1.96%. In addition, in “in vitro”, the IC50 at 24 h was > 80 µM.

One may read the IC50 as the concentration that gives 50% inhibition. A word on the Ki: it is the equilibrium dissociation constant of an inhibitor or competing ligand from its target.
